Test results as given in patent US8802597B2, “Herbicidal pyrimidines” (E I du Pont de Nemours and Company, priority 2003, dated 2014).

Tests used:
Format in all cases: in vivo
[1] = system: giant foxtail (Setaria faberi); assay: Test A pre/postemergence
How it was run: (§1)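 After planting in loam and sand, species received test chemical as preemergence soil spray; postemergence spray went on 2–10 cm plants at 1–2 leaves at the same time. Evaluation: visual injury, ~10 d, 0 no effect to 100 complete control.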

[2] = system: velvetleaf (Abutilon theophrasti); assay: Test A pre/postemergence
How it was run: as §1

[3] = system: redroot pigweed (Amaranthus retroflexus); assay: Test A pre/postemergence
How it was run: as §1

[4] = system: morningglory (Ipomoea spp.); assay: Test A pre/postemergence
How it was run: as §1

[5] = system: crabgrass (Digitaria sanguinalis); assay: Test A pre/postemergence
How it was run: as §1

[6] = system: barnyardgrass (Echinochloa crus-galli); assay: Test A pre/postemergence
How it was run: as §1

[7] = system: ducksalad (Heteranthera limosa); assay: Test E flooded paddy water application; conditions: Flood, 21 days, scale 0 to 100 (0 no effect, 100 complete control)
How it was run: (§2)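 Response scored visually on a 0–100 scale (100 = complete control) at 21 days against untreated pots. Treatment was into paddy water 3 cm deep over silt loam, with plants at the 2.0–2.5-leaf stage, grown under 16-h light at 29.5/26.7 °C day/night.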

[8] = system: water seeded rice seedlings (Oryza sativa cv. ‘Japonica-M202’); assay: Test E flooded paddy water application; conditions: Flood, 21 days, scale 0 to 100 (0 no effect, 100 complete control)
How it was run: as §2

[9] = system: transplanted rice seedlings (Oryza sativa cv. ‘Japonica-M202’); assay: Test E flooded paddy water application; conditions: Flood, 21 days, scale 0 to 100 (0 no effect, 100 complete control)
How it was run: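 Greenhouse pots of Tama silt loam with weeds and rice at 2.0–2.5-leaf stage, flooded to 3 cm; compounds applied directly into paddy water, depth maintained. Visual rating versus untreated controls after 21 days, 0 (no effect) to 100 (complete control); 29.5/26.7 °C, 16-h photoperiod.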

[10] = system: late watergrass (Echinochloa oryzicola); assay: Test E flooded paddy water application; conditions: Flood, 21 days, scale 0 to 100 (0 no effect, 100 complete control)
How it was run: as §2

[11] = system: purple redstem (Ammannia coccinea); assay: Test E flooded paddy water application; conditions: Flood, 21 days, scale 0 to 100 (0 no effect, 100 complete control)
How it was run: as §2

[12] = system: junglerice (Echinochloa colona); assay: Test E flooded paddy water application; conditions: Flood, 21 days, scale 0 to 100 (0 no effect, 100 complete control)
How it was run: as §2

[13] = system: early watergrass (Echinochloa oryzoides); assay: Test E flooded paddy water application; conditions: Flood, 21 days, scale 0 to 100 (0 no effect, 100 complete control)
How it was run: as §2

[14] = system: smallflower umbrella sedge (Cyperus difformis); assay: Test E flooded paddy water application; conditions: Flood, 21 days, scale 0 to 100 (0 no effect, 100 complete control)
How it was run: as §2

[15] = system: rice flatsedge (Cyperus iria); assay: Test E flooded paddy water application; conditions: Flood, 21 days, scale 0 to 100 (0 no effect, 100 complete control)
How it was run: as §2

[16] = system: bearded (brdd.) sprangletop (Leptochloa fusca ssp. fascicularis); assay: Test E flooded paddy water application; conditions: Flood, 21 days, scale 0 to 100 (0 no effect, 100 complete control)
How it was run: as §2

[17] = system: barnyardgrass (Echinochloa crus-galli); assay: Test E flooded paddy water application; conditions: Flood, 21 days, scale 0 to 100 (0 no effect, 100 complete control)
How it was run: as §2

[18] = Postemergence, 125 g ai/ha, 0 to 100 scale (0 no effect, 100 complete control)
[19] = Postemergence, 500 g ai/ha, 0 to 100 scale (0 no effect, 100 complete control)
[20] = Preemergence, 125 g ai/ha, 0 to 100 scale where 0 is no effect and 100 is complete control, approximately ten days
[21] = Preemergence, 500 g ai/ha, 0 to 100 scale where 0 is no effect and 100 is complete control, approximately ten days

CCOC(=O)c1nc(-c2ccc(Cl)cc2Cl)nc(N)c1Br [Compound 67]
0: Plant response rating, Foxtail, Giant [1, 18] | Plant response rating, Foxtail, Giant [1, 19] | Plant response rating, Foxtail, Giant [1, 20] | Plant response rating, Morningglory [4, 20] | Plant response rating, Morningglory [4, 21] | Plant response rating, Crabgrass [5, 20] | Plant response rating, Barnyardgrass [6, 18] | Plant response rating, Barnyardgrass [6, 19] | Plant response rating, Barnyardgrass [6, 20] | Plant response rating, Barnyardgrass [6, 21] | Rice, Water Seeded plant response rating ([8]; 32 g ai/ha) | Rice, Water Seeded plant response rating ([8]; 64 g ai/ha) | Rice, Water Seeded plant response rating ([8]; 125 g ai/ha) | Rice, Water Seeded plant response rating ([8]; 250 g ai/ha) | Plant response rating, Rice, Water Seeded ([8]; 16 g ai/ha) | Rice, Transplanted plant response rating ([9]; 32 g ai/ha) | Rice, Transplanted plant response rating ([9]; 64 g ai/ha) | Rice, Transplanted plant response rating ([9]; 125 g ai/ha) | Rice, Transplanted plant response rating ([9]; 250 g ai/ha) | Plant response rating, Rice, Transplanted ([9]; 16 g ai/ha) | Watergrass, Late plant response rating ([10]; 32 g ai/ha) | Watergrass, Late plant response rating ([10]; 64 g ai/ha) | Watergrass, Late plant response rating ([10]; 125 g ai/ha) | Watergrass, Late plant response rating ([10]; 250 g ai/ha) | Plant response rating, Watergrass, Late ([10]; 16 g ai/ha) | Redstem plant response rating ([11]; 32 g ai/ha) | Redstem plant response rating ([11]; 64 g ai/ha) | Redstem plant response rating ([11]; 125 g ai/ha) | Plant response rating, Redstem ([11]; 16 g ai/ha) | Junglerice plant response rating ([12]; 32 g ai/ha) | Junglerice plant response rating ([12]; 64 g ai/ha) | Plant response rating, Junglerice ([12]; 16 g ai/ha) | Watergrass, Early plant response rating ([13]; 32 g ai/ha) | Watergrass, Early plant response rating ([13]; 64 g ai/ha) | Watergrass, Early plant response rating ([13]; 125 g ai/ha) | Watergrass, Early plant response rating ([13]; 250 g ai/ha) | Plant response rating, Watergrass, Early ([13]; 16 g ai/ha) | Sedge, Umbrella plant response rating ([14]; 32 g ai/ha) | Sedge, Umbrella plant response rating ([14]; 64 g ai/ha) | Plant response rating, Sedge, Umbrella ([14]; 16 g ai/ha) | Flatsedge, Rice plant response rating ([15]; 32 g ai/ha) | Plant response rating, Flatsedge, Rice ([15]; 16 g ai/ha) | Sprangletop, Brdd. plant response rating ([16]; 32 g ai/ha) | Sprangletop, Brdd. plant response rating ([16]; 64 g ai/ha) | Plant response rating, Sprangletop, Brdd. ([16]; 16 g ai/ha) | Barnyardgrass plant response rating ([17]; 32 g ai/ha) | Barnyardgrass plant response rating ([17]; 64 g ai/ha) | Plant response rating, Barnyardgrass ([17]; 16 g ai/ha)
50: Plant response rating, Morningglory [4, 18]
40: Plant response rating, Velvetleaf [2, 21] | Sedge, Umbrella plant response rating ([14]; 125 g ai/ha) | Barnyardgrass plant response rating ([17]; 125 g ai/ha) | Barnyardgrass plant response rating ([17]; 250 g ai/ha)
65: Plant response rating, Velvetleaf [2, 18] | Junglerice plant response rating ([12]; 250 g ai/ha)
85: Plant response rating, Ducksalad ([7]; 16 g ai/ha) | Redstem plant response rating ([11]; 250 g ai/ha)
5: Plant response rating, Crabgrass [5, 18] | Plant response rating, Crabgrass [5, 19]
10: Plant response rating, Velvetleaf [2, 20] | Plant response rating, Pigweed [3, 20]
100: Ducksalad plant response rating ([7]; 32 g ai/ha) | Ducksalad plant response rating ([7]; 64 g ai/ha) | Ducksalad plant response rating ([7]; 125 g ai/ha) | Ducksalad plant response rating ([7]; 250 g ai/ha)
60: Plant response rating, Morningglory [4, 19] | Flatsedge, Rice plant response rating ([15]; 125 g ai/ha) | Flatsedge, Rice plant response rating ([15]; 250 g ai/ha)
70: Sedge, Umbrella plant response rating ([14]; 250 g ai/ha)
90: Plant response rating, Pigweed [3, 18] | Plant response rating, Pigweed [3, 19]
75: Plant response rating, Velvetleaf [2, 19] | Plant response rating, Pigweed [3, 21]
30: Plant response rating, Foxtail, Giant [1, 21] | Plant response rating, Crabgrass [5, 21] | Junglerice plant response rating ([12]; 125 g ai/ha) | Flatsedge, Rice plant response rating ([15]; 64 g ai/ha) | Sprangletop, Brdd. plant response rating ([16]; 125 g ai/ha) | Sprangletop, Brdd. plant response rating ([16]; 250 g ai/ha)

CCOC(=O)c1nc(-c2ccc(C)cc2)nc(N)c1Br [Compound 61]
70: Plant response rating, Velvetleaf [2, 18]
30: Plant response rating, Pigweed [3, 21] | Plant response rating, Morningglory [4, 19] | Plant response rating, Crabgrass [5, 21]
15: Plant response rating, Morningglory [4, 21]
25: Plant response rating, Foxtail, Giant [1, 19] | Plant response rating, Pigweed [3, 18] | Rice, Transplanted plant response rating ([9]; 500 g ai/ha) | Watergrass, Late plant response rating ([10]; 500 g ai/ha) | Junglerice plant response rating ([12]; 250 g ai/ha) | Junglerice plant response rating ([12]; 500 g ai/ha) | Watergrass, Early plant response rating ([13]; 500 g ai/ha)
60: Plant response rating, Barnyardgrass [6, 19] | Sprangletop, Brdd. plant response rating ([16]; 125 g ai/ha)
80: Redstem plant response rating ([11]; 64 g ai/ha) | Redstem plant response rating ([11]; 125 g ai/ha)
65: Redstem plant response rating ([11]; 32 g ai/ha) | Sprangletop, Brdd. plant response rating ([16]; 250 g ai/ha) | Sprangletop, Brdd. plant response rating ([16]; 500 g ai/ha) | Barnyardgrass plant response rating ([17]; 500 g ai/ha)
50: Plant response rating, Velvetleaf [2, 21] | Plant response rating, Pigweed [3, 19]
5: Plant response rating, Crabgrass [5, 19]
20: Watergrass, Late plant response rating ([10]; 64 g ai/ha) | Watergrass, Late plant response rating ([10]; 125 g ai/ha) | Watergrass, Late plant response rating ([10]; 250 g ai/ha) | Junglerice plant response rating ([12]; 64 g ai/ha) | Junglerice plant response rating ([12]; 125 g ai/ha) | Watergrass, Early plant response rating ([13]; 250 g ai/ha) | Sedge, Umbrella plant response rating ([14]; 32 g ai/ha)
35: Plant response rating, Barnyardgrass [6, 18] | Rice, Water Seeded plant response rating ([8]; 500 g ai/ha) | Sprangletop, Brdd. plant response rating ([16]; 32 g ai/ha) | Sprangletop, Brdd. plant response rating ([16]; 64 g ai/ha)
95: Sedge, Umbrella plant response rating ([14]; 250 g ai/ha) | Flatsedge, Rice plant response rating ([15]; 500 g ai/ha)
10: Plant response rating, Foxtail, Giant [1, 21] | Plant response rating, Morningglory [4, 18] | Plant response rating, Barnyardgrass [6, 21] | Rice, Water Seeded plant response rating ([8]; 250 g ai/ha)
40: Flatsedge, Rice plant response rating ([15]; 125 g ai/ha) | Flatsedge, Rice plant response rating ([15]; 250 g ai/ha)
75: Sedge, Umbrella plant response rating ([14]; 64 g ai/ha)
0: Plant response rating, Foxtail, Giant [1, 18] | Plant response rating, Foxtail, Giant [1, 20] | Plant response rating, Velvetleaf [2, 20] | Plant response rating, Pigweed [3, 20] | Plant response rating, Morningglory [4, 20] | Plant response rating, Crabgrass [5, 18] | Plant response rating, Crabgrass [5, 20] | Plant response rating, Barnyardgrass [6, 20] | Rice, Water Seeded plant response rating ([8]; 32 g ai/ha) | Rice, Water Seeded plant response rating ([8]; 64 g ai/ha) | Rice, Water Seeded plant response rating ([8]; 125 g ai/ha) | Rice, Transplanted plant response rating ([9]; 32 g ai/ha) | Rice, Transplanted plant response rating ([9]; 64 g ai/ha) | Rice, Transplanted plant response rating ([9]; 125 g ai/ha) | Rice, Transplanted plant response rating ([9]; 250 g ai/ha) | Watergrass, Late plant response rating ([10]; 32 g ai/ha) | Junglerice plant response rating ([12]; 32 g ai/ha) | Watergrass, Early plant response rating ([13]; 32 g ai/ha) | Watergrass, Early plant response rating ([13]; 64 g ai/ha) | Watergrass, Early plant response rating ([13]; 125 g ai/ha) | Flatsedge, Rice plant response rating ([15]; 32 g ai/ha) | Flatsedge, Rice plant response rating ([15]; 64 g ai/ha) | Barnyardgrass plant response rating ([17]; 32 g ai/ha) | Barnyardgrass plant response rating ([17]; 64 g ai/ha) | Barnyardgrass plant response rating ([17]; 125 g ai/ha) | Barnyardgrass plant response rating ([17]; 250 g ai/ha)
100: Plant response rating, Velvetleaf [2, 19] | Ducksalad plant response rating ([7]; 32 g ai/ha) | Ducksalad plant response rating ([7]; 64 g ai/ha) | Ducksalad plant response rating ([7]; 125 g ai/ha) | Ducksalad plant response rating ([7]; 250 g ai/ha) | Ducksalad plant response rating ([7]; 500 g ai/ha) | Redstem plant response rating ([11]; 250 g ai/ha) | Redstem plant response rating ([11]; 500 g ai/ha) | Sedge, Umbrella plant response rating ([14]; 500 g ai/ha)
85: Sedge, Umbrella plant response rating ([14]; 125 g ai/ha)
